Results published in article PMC7532004, “Site-specific effects of neurosteroids on GABAA receptor activation and desensitization” (eLife, 2020).

Experiments:
[1] = molecular target: α1(Q242L)β3 GABAAR (UniProt P28472+P62813, Q268L); assay: Two-electrode voltage clamp in Xenopus laevis oocytes, Q242L mutant; type: cell-based; parameters: expressed in transfected cells; host or cells: Xenopus laevis oocytes injected with cRNA
Method: (§1) The wild-type and mutant α1β3 GABAAR were expressed in oocytes from the African clawed frog (Xenopus laevis). Frogs were purchased from Xenopus 1 (Dexter, MI), and housed and cared for in a Washington University Animal Care Facility under the supervision of the Washington University Division of Comparative Medicine. Harvesting of oocytes was conducted under the Guide for the Care and Use of Laboratory Animals as adopted and promulgated by the National Institutes of Health. The animal protocol (No. 20180191) was approved by the Animal Studies Committee of Washington University in St. Louis. The oocytes were injected with a total of 12 ng cRNA. The ratio of cRNAs was 5:1 ratio (α1:β3) to minimize the expression of β3 homomeric receptors. Following injection, the oocytes were incubated in ND96 (96 mM NaCl, 2 mM KCl, 1.8 mM CaCl2, 1 mM MgCl2, 5 mM HEPES; pH 7.4) with supplements (2.5 mM Na pyruvate, 100 U/ml penicillin, 100 μg/ml streptomycin and 50 μg/ml gentamycin) at 16°C for 2 days prior to conducting electrophysiological recordings. The electrophysiological recordings were conducted at room temperature using standard two-electrode voltage clamp. The oocytes were clamped at −60 mV. The chamber (RC-1Z, Warner Instruments, Hamden, CT) was perfused with ND96 at 5–8 ml/min. […] Current traces were analyzed with Clampfit (Molecular Devices). […]

[2] = tested on: α1β3(Y284F) GABAAR; assay: Two-electrode voltage clamp in Xenopus laevis oocytes, Y284F mutant; type: cell-based; settings: 3 μM 3β5αP, 1 mM GABA; α1β3(Y284F) vs WT
Method: as §1

[3] = molecular target: T1, α1(Q242L/N408A/Y411F)β3(Y284F) GABAAR (UniProt P28472+P62813, N434A/Q268L/Y309F/Y437F); assay: Two-electrode voltage clamp in Xenopus laevis oocytes, all three sites mutated; type: cell-based; settings: 3 μM 3β5αP, 1 mM GABA + 25 μM pentobarbital
T1 construct: expressed in transfected cells; host or cells: Xenopus laevis oocytes injected with cRNA
Method: as §1

[4] = molecular target: T2, α1β3 GABAARs on intact HEK cell surfaces (Homo sapiens, UniProt P14867+P28472); assay: [3H]muscimol binding to intact HEK cells (cell surface vs total receptors); settings: 10 μM KK148; 3 nM [3H]muscimol; intact vs permeabilized HEK cells
T2 construct: inserted between the fourth and fifth residues of the mature peptide; photolabeling full-length heteropentameric GABAARs in native membranes; expressed in transfected cells
T2 sequence (P14867 28-456): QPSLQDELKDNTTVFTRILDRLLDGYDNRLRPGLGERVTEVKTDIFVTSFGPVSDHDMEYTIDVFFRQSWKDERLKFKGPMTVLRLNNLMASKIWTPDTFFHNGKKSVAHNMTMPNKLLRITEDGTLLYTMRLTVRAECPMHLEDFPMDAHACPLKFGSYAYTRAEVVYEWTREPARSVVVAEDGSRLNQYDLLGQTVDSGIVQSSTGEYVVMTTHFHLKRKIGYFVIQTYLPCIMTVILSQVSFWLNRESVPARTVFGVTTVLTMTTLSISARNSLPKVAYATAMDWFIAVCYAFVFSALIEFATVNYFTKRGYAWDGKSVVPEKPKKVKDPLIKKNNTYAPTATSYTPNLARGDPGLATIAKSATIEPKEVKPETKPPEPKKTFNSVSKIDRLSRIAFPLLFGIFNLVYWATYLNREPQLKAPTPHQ
T2 sequence (P28472 26-473): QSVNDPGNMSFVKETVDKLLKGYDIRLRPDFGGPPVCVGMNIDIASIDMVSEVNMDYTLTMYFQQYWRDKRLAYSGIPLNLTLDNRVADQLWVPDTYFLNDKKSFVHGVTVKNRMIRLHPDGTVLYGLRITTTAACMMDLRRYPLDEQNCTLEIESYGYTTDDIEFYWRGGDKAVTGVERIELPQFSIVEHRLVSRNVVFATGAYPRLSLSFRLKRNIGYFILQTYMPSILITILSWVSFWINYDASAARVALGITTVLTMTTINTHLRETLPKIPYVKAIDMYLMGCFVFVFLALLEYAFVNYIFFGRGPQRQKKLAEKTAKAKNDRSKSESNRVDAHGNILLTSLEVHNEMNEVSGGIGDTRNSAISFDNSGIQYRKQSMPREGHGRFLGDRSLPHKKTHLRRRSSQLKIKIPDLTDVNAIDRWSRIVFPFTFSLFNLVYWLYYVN
Method: HEK cells were harvested by gently washing dishes with buffer containing 10 mM sodium phosphate (pH 7.5), 150 mM sodium chloride twice. The cells were collected by centrifugation at 500 g at 4°C for 5 min, and resuspended in isotonic (10 mM sodium phosphate, 150 mM sodium chloride, pH 7.5) or hypotonic (10 mM sodium phosphate, pH 7.5) buffer to prepare two different conditions for radioligand binding to intact cells [isotonic buffer for cell surface receptors; hypotonic buffer for total receptors (cell surface receptors + intracellular receptors)]. The cells were incubated on ice for 2 hr, after which the sodium chloride concentration was adjusted to be isotonic before the radioligand binding procedure. HEK cells were aliquoted to assay tubes (20 samples/150 mm dish) in a total volume of 1 ml, and incubated with 3 nM [^3H]muscimol ±10 μM KK148 for 1 hr on ice in the dark.

CC(=O)[C@H]1CC[C@H]2[C@@H]3CC[C@H]4C[C@H](O)CC[C@]4(C)[C@H]3CC[C@]12C [3α5αP, allopregnanolone]
Effect on steady-state current ([1]; 3 μM 3α5αP, 1 mM GABA + 40 μM pentobarbital, α1(Q242L)β3): small reduction

CC(=O)[C@H]1CC[C@H]2[C@@H]3CC[C@H]4C[C@@H](O)CC[C@]4(C)[C@H]3CC[C@]12C [3β5αP, epi-allopregnanolone]
Prevention of 3β5αP-enhanced desensitization by mutation [2]: ~ 67% | Desensitizing effect with combined mutations of all three binding sites [3]: not completely eliminated | Effect of mutation on 3β5αP-enhanced desensitization ([1]; 3 μM 3β5αP, 1 mM GABA, α1(Q242L)β3 vs WT): without effect

C#CCCO[C@H]1CC[C@H]2[C@@H]3CC[C@H]4CC5(CC[C@]4(C)[C@H]3CC[C@]12C)N=N5 [KK148]
Enhancement of specific [3H]muscimol binding in intact cells [4]: enhanced
